Measurements published in patent publication US11766447B2, “3′3′-cyclic dinucleotide analogue comprising a cyclopentanyl modified nucleotide as sting modulator” (INSTITUTE OF ORGANIC CHEMISTRY AND BIOCHEMISTRY ASCR, V.V.I., priority 2019, dated 2023).
Read-outs that look alike come from different tables or passages of the source.

Legend:
WT STING [1] = biological target: T1, WT STING (Homo sapiens, UniProt Q86WV6, H232R); assay: 293T WT STING standard reporter assay; type: cell-based; set-up: host or cells: 293T (ATCC CRL-3216), stably transfected, with 4xISRE firefly luciferase reporter; settings: 293T wtSTING-FL cells, ISRE firefly luciferase; no digitonin; 7 hours with compounds; 8-point curve
Excerpt: Two complementary oligonucleotides of the sequence […] […] […] […] […] The oligonucleotides were mixed in equal molar amounts, hybridized, and cleaved by restriction endonucleases HindIII (cat. #. R0104S, NEB, Ipswich, USA) and BglII (cat. #R0144S, NEB, Ipswich, USA). Ultimately, they were ligated into plasmid pGL4.27 (cat. #E6651, Promega, Madison, USA) linearized with the same enzymes. As result the sequence with four ISRE sites was placed upstream of the minimum promoter of firefly luciferase reporter gene.
After 5 minutes incubation at room temperature (RT), 250 μL of the mixture was added dropwise to the cells in one well. Cells were incubated 36 hours at 37° C. with 5% CO2, and then detached with 0.05% Trypsin and 0.22 g/L EDTA (both cat. #L0941, Biowest, Riverside, USA).
Transfected cells were seeded onto poly-D-lysine coated six well plates at density 50,000 cells per 1 cm^2 in DMEM medium with high glucose containing 10% heat inactivated FBS, 30 μg/mL blasticidin (cat. #ant-b1-05, InvivoGen, San Diego, USA), 0.06 mg/ml Penicillin G and 0.1 mg/ml Streptomycin Sulfate (both cat. #. L0018, Biowest, Riverside, USA). The medium was replenished every 3-4 days until visible colonies of cells resistant to blasticidin were formed.
Blasticidin resistant cells stably expressing WT STING were further transfected with […] plasmid following the same procedure as described above. […] Homogeneous culture of stably double transfected cells was prepared by limiting dilution of cells in 96 well plates and wells with cells were selected that originated from a single cell.
The medium was removed next day and three-fold serial dilutions of compounds in 100 μl medium were added to the cells. The plates with cells were incubated for 7 hours at 37° C. with 5% CO2. After 50 μl of the medium was removed, 30 μl of ONE-Glo™ Luciferase Assay System reagent (cat. #E6120, Promega, Madison, USA) was added to each well and luminescence was read on Synergy H1 (Biotek, Winooski, USA).
Target sequence in this assay (Q86WV6 whole entry H232R): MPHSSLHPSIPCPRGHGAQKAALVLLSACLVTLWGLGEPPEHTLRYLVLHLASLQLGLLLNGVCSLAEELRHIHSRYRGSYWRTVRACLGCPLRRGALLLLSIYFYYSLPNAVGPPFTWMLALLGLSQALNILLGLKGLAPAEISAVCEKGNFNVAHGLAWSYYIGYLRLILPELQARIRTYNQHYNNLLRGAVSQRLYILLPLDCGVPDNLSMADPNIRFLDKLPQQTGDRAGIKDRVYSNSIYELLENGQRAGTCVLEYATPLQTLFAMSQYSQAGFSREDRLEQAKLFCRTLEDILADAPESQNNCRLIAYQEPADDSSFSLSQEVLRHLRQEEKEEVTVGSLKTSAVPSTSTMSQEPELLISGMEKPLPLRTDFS

[2] = system: peripheral blood mononuclear cells (PBMC); assay: Peripheral blood mononuclear cell (PBMC) assay; type: cell-based; settings: PBMC, 1 h with compounds, washed, 15 hour incubation, average of one to four donors
Summary of the method: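 PBMCs exposed to serially diluted compound for 1 h at 37° C, 5% CO2, then washed twice and cultured 15 h in compound-free medium. IFN-α, IFN-γ and TNF-α measured in collected medium by multiplex bead immunoassay. Values averaged over runs from one to four donors.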

WT STING [3] = biological target: T1, WT STING; assay: Differential scanning fluorimetry (DSF) with WT STING; type: binding; set-up: 8xHis (N, cleaved yes); SUMO (N, cleaved yes); made in house; host or cells: E. coli Rosetta-gami B (DE3); settings: thermal shift vs apoprotein; 150 μM CDN; truncated human WT STING 0.1 mg/ml
Summary of the method: (§1)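 […] STING proteins, alone or with CDNs, in triplicate, thermally denatured on a real-time PCR cycler. Denaturing temperatures taken from first-derivative curves; shift = mean Tm of STING–CDN complex minus mean Tm of apoprotein.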
Target sequence in this assay (Q86WV6 140-343 H232R): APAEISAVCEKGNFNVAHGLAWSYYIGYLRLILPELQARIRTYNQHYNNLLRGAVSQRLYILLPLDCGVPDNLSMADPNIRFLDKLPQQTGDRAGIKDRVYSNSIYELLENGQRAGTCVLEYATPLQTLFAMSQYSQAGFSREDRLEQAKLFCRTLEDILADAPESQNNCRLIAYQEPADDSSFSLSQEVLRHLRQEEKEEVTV

AQ STING (G230A-R293Q) = biological target: T2, AQ STING (G230A-R293Q) (Homo sapiens, UniProt Q86WV6, G230A/H232R/R293Q); assay: Differential scanning fluorimetry (DSF) with AQ STING; type: binding; settings: thermal shift vs apoprotein; 150 μM CDN; truncated human AQ STING 0.1 mg/ml
T2 construct: 8xHis (N, cleaved yes); SUMO (N, cleaved yes); made in house; host or cells: E. coli Rosetta-gami B (DE3)
Summary of the method: as §1

WT STING [4] = biological target: T1, WT STING; assay: Digitonin assay using 293T wtSTING-FL reporter cells; type: cell-based; set-up: host or cells: 293T (ATCC CRL-3216), stably transfected, with 4xISRE firefly luciferase reporter; settings: 293T wtSTING-FL cells, ISRE firefly luciferase; compounds in Digitonin buffer 30 minutes, then 5 hours; 8-point curve
Target sequence in this assay (Q86WV6 whole entry H232R): as the sequence (Q86WV6 whole entry H232R) above

[5] = interferon-alpha level, read-out: PBMC EC50 (μM) IFN-α
[6] = interferon-gamma level, read-out: PBMC EC50 (μM) IFN-γ
[7] = tumor necrosis factor-alpha level, read-out: PBMC EC50 (μM) TNF-α

T2 sequence (Q86WV6 140-343 G230A/H232R/R293Q): as the sequence (Q86WV6 140-343 H232R) above, with G91A, R154Q counted along it

EC50 (WT STING [1]) [µM]	DSF ΔTm (° C.) WT STING (WT STING [3]) [°C]	DSF ΔTm (° C.) AQ STING (AQ STING (G230A-R293Q)) [°C]	EC50 (WT STING [4]) [µM]	ΔTm at 150 µM (WT STING [3]) [°C]	ΔTm at 150 µM (AQ STING (G230A-R293Q)) [°C]	Compound	EC50 [2, 5] [µM]	EC50 [2, 6] [µM]	EC50 [2, 7] [µM]
0.4	12.2	17.5	0.01	–	–	Nc1ncnc2c1ncn2[C@@H]1C[C@@H]2COP(=O)(S)O[C@@H]3[C@@H](COP(=O)(S)O[C@H]2[C@H]1F)C[C@@H](n1cnc2c(N)ncnc21)[C@@H]3F (single isomer, unassigned) [Compound 128b]	27	6.5	19
0.3	13.7	20.8	0.007	–	–	Nc1nc2c(ncn2[C@@H]2C[C@@H]3COP(=O)(S)O[C@H]4[C@@H](F)[C@H](n5cnc6c(N)ncnc65)O[C@@H]4COP(=O)(S)O[C@H]3C2)c(=O)[nH]1 (single isomer, unassigned) [Compound 129d]	27	23	25
11.7	–	–	0.05	5.7	16.6	Nc1ncnc2c1ncn2[C@H]1CC2OP(=O)(O)OC[C@H]3O[C@@H](n4cnc5c(N)ncnc54)C(F)C3OP(=O)(O)OC[C@H]2C1 (stereo partly drawn) [Compound 119, (2R, 3R, 3aR, 7aR, 9R, 10aS, 14aR)-2,9-bis(6-amino-9H-purin-9-yl)-3-fluoro-5,12-dihydroxydecahydro-2H-cyclopeanta[d]furo[3,2-j][1,3,7,9]tetraoxa[2,8]diphosphacyclododecine 5,12-dioxide]	265	169	146
1.9	–	–	0.01	10.3	17	Nc1ncnc2c1ncn2[C@@H]1C[C@@H]2COP(=O)(O)OC3C(F)[C@H](n4cnc5c(N)ncnc54)O[C@@H]3COP(=O)(O)OC2C1F (stereo partly drawn) [Compound 120, (2R,3R,3aR,7aR,9R,10S,10aR,14aR)-2,9-bis(6-amino-9H-purin-9-yl)-3,10-difluoro-5,12-dihydroxydecahydro-2H-cyclopenta[d]furo[3,2-j][1,3,7,9]tetraoxa[2,8]diphosphacyclododecine 5,12-dioxide]	64	36.6	72.6
2.6	–	–	0.05	7.6	13.9	Nc1ncnc2c1ncn2[C@@H]1C[C@@H]2COP(=O)(O)OC3C(F)[C@H](n4cnc5c(N)ncnc54)C[C@@H]3COP(=O)(O)OC2C1F (stereo partly drawn) [Compound 121, (2R,3S,3aR,7aR,9R,10S,10aR,14aR)-2,9-bis(6-amino-9H-purin-9-yl)-3,10-difluoro-5,12-dihydroxydodecahydrodicyclopenta[d,j][1,3,7,9]tetraoxa[2,8]-diphosphacyclododecine 5,12-dioxide]	254	200	254
4.9	–	–	0.05	6.2	12.8	Nc1ncnc2c1ncn2[C@@H]1C[C@@H]2COP(=O)(O)OC3C[C@H](n4cnc5c(N)ncnc54)O[C@@H]3COP(=O)(O)OC2C1F (stereo partly drawn) [Compound 124, (2R,3aS,7aR,9R,10S,10aR,14aR)-2,9-bis(6-amino-9H-purin-9-yl)-10-fluoro-5,12-dihydroxydecahydro-2H-cyclopenta[d]furo[3,2-j][1,3,7,9]tetraoxa[2,8]diphosphacyclododecine 5,12-dioxide]	290	43	223
0.2	–	–	0.01	18.6	26.1	Nc1nc2c(ncn2[C@@H]2O[C@@H]3COP(=O)(S)OC4C(F)[C@H](n5cnc6c(N)ncnc65)C[C@@H]4COP(=O)(S)OC3C2F)c(=O)[nH]1 (stereo partly drawn) [Compound 132b, (1R,6R,8R,9R,10R,15R,17R,18S)-8-(2-amino-6-oxo-6,9-dihydro-1H-purin-9-yl)-17-(6-amino-9H-purin-9-yl)-9,18-difluoro-3,12-disulfanyl-2,4,7,11,13-pentaoxa-3λ^5,12λ^5-diphosphatricyclo[13.3.0.0^6,10]octadecane-3,12-dione]	–	–	–
